# Structures can show the parent of a compound that is named as a salt. Where two headings read alike, the source gives them in different places.
# What was measured:
# [1] = target: T1, SARS-CoV-2 PLpro (nsp3 1564–1878) (Severe acute respiratory syndrome coronavirus 2, UniProt P0DTD1); experiment: biochemical; set-up: FRET-quenched peptide (Pro3) cleavage by PLpro, 10 min pre-incubation, slope over 20 min, normalised to no-compound control; conditions: low concentration screen, read-out: % of control remaining
# [2] = target: T1, SARS-CoV-2 PLpro (nsp3 1564–1878); experiment: biochemical; set-up: FRET-quenched peptide (Pro3) cleavage by PLpro, 10 min pre-incubation, slope over 20 min, normalised to no-compound control; conditions: high concentration screen, read-out: % of control remaining
smiles,measurement,setting,value
CCC[C@@H]1C[C@@H](C(=O)N[C@@H]([C@H]2O[C@H](SC)[C@H](O)[C@@H](O)[C@H]2O)[C@@H](C)O)N(C)C1 [Lincomycin],remaining activity at 1.25 µM,[1]; Well no.=1549,102%
same,remaining activity at 1.25 µM,[1]; Well no.=3377,96.3%
same,remaining activity at 3.75 µM,[2]; Well no.=1549,105%
same,remaining activity at 3.75 µM,[2]; Well no.=3377,96.8%
CC(=O)NC[C@H]1CN(c2ccc(N3CCOCC3)c(F)c2)C(=O)O1 [Linezolid],remaining activity at 1.25 µM,[1]; Well no.=1782,102%
same,remaining activity at 3.75 µM,[2]; Well no.=1782,98.8%
CCCCC/C=C\C/C=C\CCCCCCCC(N)=O [Linoleamide],remaining activity at 1.25 µM,[1]; Well no.=4338,101%
same,remaining activity at 3.75 µM,[2]; Well no.=4338,92.5%
CCCCC/C=C\C/C=C\CCCCCCCC(=O)O [Linoleic acid],remaining activity at 1.25 µM,[1]; Well no.=4349,103%
same,remaining activity at 1.25 µM,[1]; Well no.=7029,94.8%
same,remaining activity at 3.75 µM,[2]; Well no.=4349,101%
same,remaining activity at 3.75 µM,[2]; Well no.=7029,85.7%
CC/C=C\C/C=C\C/C=C\CCCCCCCC(=O)O [Linolenic acid],remaining activity at 1.25 µM,[1]; Well no.=4305,103%
same,remaining activity at 1.25 µM,[1]; Well no.=4358,101%
same,remaining activity at 3.75 µM,[2]; Well no.=4305,102%
same,remaining activity at 3.75 µM,[2]; Well no.=4358,100%
O=C1N(c2ccccc2)c2ccccc2C1(Cc1ccncc1)Cc1ccncc1 [Linopirdine],remaining activity at 1.25 µM,[1]; Well no.=822,104%
same,remaining activity at 3.75 µM,[2]; Well no.=822,105%
C[C@@H](C(=O)Nc1ccc(Cl)cc1)[C@H]1CC[C@@H](c2ccnc3ccc(F)cc32)CC1 [Linrodostat],remaining activity at 1.25 µM,[1]; Well no.=8267,97.9%
same,remaining activity at 3.75 µM,[2]; Well no.=8267,99.1%
O=C(O)CCCC[C@@H]1CCSS1 [Lipoic acid],remaining activity at 1.25 µM,[1]; Well no.=6915,105%
same,remaining activity at 3.75 µM,[2]; Well no.=6915,104%
Clc1cccc(CN=C2Nc3ccccc3NC23CCNCC3)c1 [Liproxstatin-1],remaining activity at 1.25 µM,[1]; Well no.=5945,98.7%
same,remaining activity at 1.25 µM,[1]; Well no.=6402,94.5%
same,remaining activity at 3.75 µM,[2]; Well no.=5945,97.6%
same,remaining activity at 3.75 µM,[2]; Well no.=6402,93.9%
COc1cccc(N(C)C(=S)Oc2ccc3c(c2)CCCC3)n1 [Liranaftate],remaining activity at 1.25 µM,[1]; Well no.=4672,101%
same,remaining activity at 3.75 µM,[2]; Well no.=4672,101%
NCCCC[C@H](N[C@@H](CCc1ccccc1)C(=O)O)C(=O)N1CCC[C@H]1C(=O)O [Lisinopril (dihydrate)],remaining activity at 1.25 µM,[1]; Well no.=7736,95.6%
same,remaining activity at 3.75 µM,[2]; Well no.=7736,96.7%
NCCCC[C@H](N[C@@H](CCc1ccccc1)C(=O)O)C(=O)N1CCC[C@H]1C(=O)O [Lisinopril],remaining activity at 1.25 µM,[1]; Well no.=2270,91.3%
same,remaining activity at 3.75 µM,[2]; Well no.=2270,93.2%
C[C@H](CCC(=O)O)[C@H]1CC[C@H]2[C@@H]3CC[C@@H]4C[C@H](O)CC[C@]4(C)[C@H]3CC[C@]12C [Lithocholic acid],remaining activity at 1.25 µM,[1]; Well no.=4646,95.7%
same,remaining activity at 1.25 µM,[1]; Well no.=7307,97.4%
same,remaining activity at 3.75 µM,[2]; Well no.=4646,93.6%
same,remaining activity at 3.75 µM,[2]; Well no.=7307,89.6%
Cc1ccc(F)cc1C(=O)Nc1ccc(C(=O)N2Cc3cccn3Cc3ccccc32)c(Cl)c1 [Lixivaptan],remaining activity at 1.25 µM,[1]; Well no.=6957,91.5%
same,remaining activity at 3.75 µM,[2]; Well no.=6957,88.9%
CN1[C@@H](CC(=O)c2ccccc2)CCC[C@H]1C[C@H](O)c1ccccc1 [Lobeline (hydrochloride)],remaining activity at 1.25 µM,[1]; Well no.=8326,104%
same,remaining activity at 3.75 µM,[2]; Well no.=8326,100%
N#Cc1cc(NC(=O)C(=O)O)c(Cl)c(NC(=O)C(=O)O)c1 [Lodoxamide],remaining activity at 1.25 µM,[1]; Well no.=8241,107%
same,remaining activity at 3.75 µM,[2]; Well no.=8241,105%
CC(Oc1c(Cl)cccc1Cl)C1=NCCN1 (stereo not drawn) [Lofexidine.HCl],remaining activity at 1.25 µM,[1]; Well no.=1971,101%
same,remaining activity at 3.75 µM,[2]; Well no.=1971,102%
CCn1cc(C(=O)O)c(=O)c2cc(F)c(N3CCNC(C)C3)c(F)c21 (stereo not drawn) [Lomefloxacin hydrochloride],remaining activity at 1.25 µM,[1]; Well no.=929,98.7%
same,remaining activity at 3.75 µM,[2]; Well no.=929,94.8%
CCn1cc(C(=O)O)c(=O)c2cc(F)c(N3CCNC(C)C3)c(F)c21 (stereo not drawn) [Lomefloxacin],remaining activity at 1.25 µM,[1]; Well no.=2272,95.3%
same,remaining activity at 3.75 µM,[2]; Well no.=2272,96.1%
Nc1nc(OCc2cc(Br)cs2)c2[nH]cnc2n1 [Lomeguatrib],remaining activity at 1.25 µM,[1]; Well no.=5885,105%
same,remaining activity at 3.75 µM,[2]; Well no.=5885,105%
COc1ccc(CN2CCN(C(c3ccc(F)cc3)c3ccc(F)cc3)CC2)c(OC)c1OC [Lomerizine],remaining activity at 1.25 µM,[1]; Well no.=1941,98.3%
same,remaining activity at 3.75 µM,[2]; Well no.=1941,100%
O=C(NC1CCN(CCCCC2(C(=O)NCC(F)(F)F)c3ccccc3-c3ccccc32)CC1)c1ccccc1-c1ccc(C(F)(F)F)cc1 [Lomitapide],remaining activity at 1.25 µM,[1]; Well no.=8672,93.8%
same,remaining activity at 3.75 µM,[2]; Well no.=8672,93.5%
COC(=O)c1ccc(O)c2nc3c(C=O)c(O)cc(O)c3nc12 [Lomofungin],remaining activity at 1.25 µM,[1]; Well no.=1551,102%
same,remaining activity at 3.75 µM,[2]; Well no.=1551,102%
NC(=O)N1CCC(CC(=O)N2CCC([C@H]3c4ncc(Br)cc4CCc4cc(Cl)cc(Br)c43)CC2)CC1 [Lonafarnib (SCH66336)],remaining activity at 1.25 µM,[1]; Well no.=4781,105%
same,remaining activity at 3.75 µM,[2]; Well no.=4781,101%
O=C(O)c1nn(Cc2ccc(Cl)cc2Cl)c2ccccc12 [Lonidamine],remaining activity at 1.25 µM,[1]; Well no.=1121,92.8%
same,remaining activity at 3.75 µM,[2]; Well no.=1121,97%
CN(C)C(=O)C(CCN1CCC(O)(c2ccc(Cl)cc2)CC1)(c1ccccc1)c1ccccc1 [Loperamide (hydrochloride)],remaining activity at 1.25 µM,[1]; Well no.=7427,97.7%
same,remaining activity at 3.75 µM,[2]; Well no.=7427,101%
CN(C)C(=O)C(CCN1CCC(O)(c2ccc(Cl)cc2)CC1)(c1ccccc1)c1ccccc1 [Loperamide hydrochloride],remaining activity at 1.25 µM,[1]; Well no.=1073,94.7%
same,remaining activity at 3.75 µM,[2]; Well no.=1073,98.4%
CN(C)C(=O)C(CCN1CCC(O)(c2ccc(Cl)cc2)CC1)(c1ccccc1)c1ccccc1 [Loperamide.HCl],remaining activity at 1.25 µM,[1]; Well no.=1597,104%
same,remaining activity at 3.75 µM,[2]; Well no.=1597,104%
Cc1cccc(C)c1OCC(=O)N[C@@H](Cc1ccccc1)[C@@H](O)C[C@H](Cc1ccccc1)NC(=O)[C@H](C(C)C)N1CCCNC1=O [Lopinavir],remaining activity at 1.25 µM,[1]; Well no.=9076,83.9%
same,remaining activity at 3.75 µM,[2]; Well no.=9076,84.3%
CCOC(=O)N1CCC(=C2c3ccc(Cl)cc3CCc3cccnc32)CC1 [Loratadine],remaining activity at 1.25 µM,[1]; Well no.=933,96.2%
same,remaining activity at 1.25 µM,[1]; Well no.=2274,89.1%
same,remaining activity at 1.25 µM,[1]; Well no.=7337,98.6%
same,remaining activity at 3.75 µM,[2]; Well no.=933,98.6%
same,remaining activity at 3.75 µM,[2]; Well no.=2274,89.3%
same,remaining activity at 3.75 µM,[2]; Well no.=7337,102%
C[C@H]1CNCCc2ccc(Cl)cc21 [Lorcaserin (Hydrochloride)],remaining activity at 1.25 µM,[1]; Well no.=6954,99.1%
same,remaining activity at 3.75 µM,[2]; Well no.=6954,93.7%
C[C@H]1CNCCc2ccc(Cl)cc21 [Lorcaserin HCl],remaining activity at 1.25 µM,[1]; Well no.=4742,102%
same,remaining activity at 3.75 µM,[2]; Well no.=4742,102%

# From paper PMC8286840, “Identifying SARS-CoV-2 antiviral compounds by screening for small molecule inhibitors of Nsp3 papain-like protease” (Biochemical Journal, 2021)
